From US6936637B2, “Prevention of apoptosis in non-cancerous cells” (University of Tennessee Research Foundation, priority 1999, dated 2005)
Blank lines part the entries; values can stand above or below the compound they belong to.

Key:
[1] = system: caspase 3; experiment: Caspase 3 activity assay (DEVD-pNA) in cell lysates; format: cell-based, rat; details: for caspase 3 activity over time, attached cells: camptothecin exposure 0 to 18 hours, control cells or DFMO treated cells
Method: In a separate flask, following camptothecin or DMSO addition, the cells were harvested after 16 hours in order to obtain a sufficient number of floating cells for analysis. Floating cells were then poured off to be counted and were combined with one wash with cold DPBS (Sigma, St. Louis, Mo.). The attached cells were then harvested for determination of caspase activity. 10 ml of DPBS was added to the flask and the monolayer was scraped and collected into a 25 ml tube. The flask was washed once with 10 ml of DPBS and combined into the 25 ml tube. The cells were pelleted by centrifugation at 800× g for 5 minutes. The supernatant was discarded and the pellet was resuspended in 1 ml of cold DPBS and transferred into a microfuge tube. The cells were pelleted by centrifugation at 10,000× g at 4° C. for 10 minutes. The supernatant was discarded and the cells were lysed in 100 ml of ice cold cell lysis buffer (50 mM HEPES, pH 7.4, 0.1% CHAPS, 1 mM DTT, 0.1 mM EDTA, 0.1% NP40) (Sigma, St. Louis, Mo.). The assay for caspase activity was carried out in a 96-well plate. Into each well was placed 20 μl of cell lysate, 70 μl of assay buffer (50 mM HEPES, pH 7.4, 0.1% CHAPS, 100 mM NaCl, 10 mM DTT, 1 mM EDTA ) and 10 μl of caspase 3 calorimetric substrate (2 mM DEVD-pNA prepared in assay buffer, a caspase specific peptide that is conjugated to the chromogen p-nitroanilide) (Biomol Research Laboratories, Plymouth Meeting, Pa.). The 96-well plate was incubated at 37° C. for 2 hours, during which time the caspase in the sample was allowed to cleave the chromophore pNA from the substrate molecule. Absorbance readings at 405 nm were made after the 2 hour incubation, with the caspase activity being directly proportional to the color reaction. Protein was determined for each sample using the BCA method (Pierce, Rockford, Ill.) and a standard curve for p-nitroanilide was carried out. Results for caspase activity were expressed as pmol of pNA released/mg protein/minute.

[2] = system: CaCo-2 cells; experiment: Examples 1 to 8 repeated in cancerous cells; format: cell-based, human; details: CaCo-2 cells substituted for IEC-6
Excerpt: Studies described in Examples 1 to 8 are repeated, except that cancerous human intestinal CaCo-2 cells (ATCC no. HTB37) are substituted for the IEC-6 rat intestinal cell lines.

[3] = system: caspase 3; experiment: Western blot of caspase 3 levels; format: cell-based, rat; details: polyamine depleted cells (DFMO)
Method: Total cell protein (50 μg) from cell extracts prepared for caspase 3 assay was separated on 15% SDS-PAGE and transferred to nitrocellulose membranes for western blotting. Equal loading of protein was confirmed by staining the nitrocellulose membrane with Ponceau S (Sigma, St. Louis, Mo.). The membrane was then probed with an antibody directed against caspase 3 (CPP32) (Santa Cruz Biotechnology, Santa Cruz, Calif.). The immunocomplexes were visualized by the enhanced chemiluminescence detection system.

[4] = system: mast cell tumor; experiment: Dog with mast cell tumor treated with Co60 gamma radiation; format: in vivo; details: DFMO 100 mg/kg/day orally for four days, adult dog
Method: DFMO at a dosage of 100 mg/kg/day is administered orally for four days to an adult dog suffering from a mast cell tumor on one of its rear legs. The tumor is treated in multiple sessions by exposure to Co^60 gamma radiation as indicated for this type of tumor. The field of exposure to the radiation exceeds the boundaries of the tumor.

[5] = system: IEC-6 cells; experiment: Intracellular polyamines by HPLC; format: cell-based, rat; details: for level of putrescine in the cells / level of spermidine in the cells / level of spermine in the cells: cells grown in presence of DFMO or DEGBG
Method: IEC-6 cells were grown for 4 days in the presence or absence of DFMO (Marion Merrel Dow, Cincinnati, Ohio) the highly specific inhibitor of ODC. DFMO treatment depletes putrescine within 3 hours. Depletion of spermidine requires 24 hours and significant depletion (about 50%) of spermine requires 3 days.
Intracellular polyamines were analyzed by high performance liquid chromatography. Cells were plated in 60 mm dishes at 6.25×10^4 cells/cm^2 and grown in DMEM/dFBS with or without DFMO or DEGBG. After washing the monolayer three times with ice-cold DPBS, 0.5 M perchloric acid was added and the samples were then frozen at −80° C. until ready for extraction, dansylation, and HPLC. The standard curve encompassed the range of 0.31-10 μM. Values that fell >25% below the curve were considered not detectable. The level of […] was determined by the Bradford method, as described in Anal. Biochem., 72:248-254 (1976).

[6] = system: CaCo-2 cells; experiment: Floating cell count in cancerous cells; format: cell-based, human
Method: Cancerous human intestinal CaCo-2 cells were grown in similar culture media as described in Example 1, except that one group of the cells was grown in a medium not containing DFMO and another group was grown in a medium containing DFMO. After four days of growth, camptothecin at a dose of 20 μM was added to the culture medium of each of the groups. After 6 hours, the number of floating cells in the media of the two groups of cells was determined. The study was repeated using a different inducer of apoptosis, a combination of 20 ng/ml of tumor necrosis factor-α (TNF-α) and 25 μg/ml of cycloheximide.

[7] = system: IEC-6 cells; experiment: Floating cell count (detachment-induced cell death, apoptosis); format: cell-based, rat; details: for number of floating cells compared to control: FIG. 4; for floating cells (percentage of total cell count): camptothecin exposure
Method: IEC-6 cells, having the ATCC designation CRL-1592, were obtained from the American Type Culture Collection at passage 13. The IEC-6 cells are normal, non-cancerous intestinal epithelial cells derived from fetal rat crypt cells. These cells are non-tumorigenic and retain the undifferentiated character of epithelial stem cells. The IEC-6 cell stock was maintained in T-150 flasks in a humidified, 37° C. incubator in an atmosphere of 90:10 air:CO2. The medium used was Dulbecco's modified Eagle medium (DMEM) (Gibco BRL, Grand Island, N.Y.) with 5% heat inactivated fetal bovine serum (FBS) (Sigma, St. Louis, Mo.) and 10 μg insulin and 50 μg gentamicin sulfate per ml. The stock was passaged weekly at 1:10, fed 3 times per week, and passages 15-20 were used. The cells were plated on day 0 at a density of 6.25×10^4 cells/cm^2 in T-150 flasks in DMEM/dFBS (dialyzed fetal bovine serum with 10,000 molecular weight cut-off) (Sigma, St. Louis, Mo.) with or without the treatment compound or compounds described in the Examples that follow. The cells were fed on day 2. On day 3, medium was removed and replaced with serum-free medium. On day 4, camptothecin (Sigma, St. Louis, Mo.) in a DMSO vehicle was added to a concentration of 20 μM into the serum-free medium containing the cells of Example 1 for 3 to 18 hours, with the vehicle (DMSO) added to controls. Detachment-induced cell death (DICD) is a well recognized form of apoptosis in anchorage-dependent cell types, such as intestinal epithelial cells. Floating cells were poured into a 25 ml tube and the monolayer was washed once with HBSS without calcium and magnesium. This wash was then combined into the tube with the floating cells. Attached cells were taken up with 0.05% trypsin plus 0.53 MM EDTA, followed by one wash of the flask with DMEM/5% FBS. Cell counts were determined separately for floating and attached cells by counting on a Model ZF Coulter counter. Floating cells were expressed as a percentage of the total cell count obtained by combining the number of floating and attached cells.

[8] = system: IEC-6 cells; experiment: Nucleosomal DNA fragmentation assay; format: cell-based, rat; details: camptothecin 20 μM
Method: Cells were collected for determining the presence or absence of DNA fragmentation. After treatment with camptothecin (or vehicle), floating cells were poured off and combined with one DPBS wash of the monolayer. […] The attached cells were collected for DNA fragmentation by scraping in DPBS and combining with one wash of the flask with DPBS. […] The nucleosomal fragmentation assay was carried out by isolating DNA from the cells using the TACS apoptotic DNA laddering kit (Trevigen, Gaithersburg, Md.) and analyzing the labeled DNA by agarose gel electrophoresis following the manufacturer's instructions.

[9] = system: caspase 3; details: putrescine up to 5 μM added to cell extracts from DFMO treated cells
[10] = cells grown 4 days with DFMO, 6 hours after camptothecin
[11] = 0 time, control cells or DFMO treated cells
[12] = 18 hours, control cells or DFMO treated cells

Compound: NCCCC(N)(C(=O)O)C(F)F (racemic) [DFMO, DL-œ-difluoromethylornithine]
exposure to camptothecin after which significant increase in caspase 3 activity was observed ([1]; DFMO treated cells): 18 h | caspase 3 activity over time, attached cells [1]: did not show remarkable increases in caspase 3 activity for up to 12 hours | lower caspase 3 activity compared to control [1, 10]: approximately 50% | inhibition of apoptosis [2]: No inhibition of apoptosis is observed | level of caspase 3 (Western blot) compared with controls [3]: not significantly different | death of surrounding normal tissues [4]: visually noticeable decrease in death of the surrounding normal tissues | effect on tumor [4]: the tumor is killed | time required for depletion of spermidine ([5]; DFMO treatment of IEC-6 cells): 24 h | time required for significant depletion of spermine ([5]; DFMO treatment of IEC-6 cells): 3 days | time to depletion of putrescine ([5]; DFMO treatment of IEC-6 cells): ≤ 3 h | depletion of spermine ([5]; DFMO treatment, 3 days): about 50% | level of putrescine in the cells [5]: decreases | level of spermidine in the cells [5]: decreases | level of spermine in the cells [5]: decreases | protection of cancerous cells from apoptosis ([6]; apoptosis induced by camptothecin or TNF-α + cycloheximide): did not protect the cancerous cells from apoptosis | number of floating cells ([6]; with DFMO 4 days, 20 ng/ml TNF-α and 25 μg/ml cycloheximide): 6.2 +/− .6 | number of floating cells ([6]; with DFMO 4 days, camptothecin 20 μM, 6 hours): 3.7 +/− .24 | number of floating cells ([6]; with DFMO 4 days, no TNF-α + cycloheximide): 4.8 +/− .5 | number of floating cells ([6]; with DFMO 4 days, no camptothecin): 3.1 +/− .06 | number of floating cells compared to control ([7]; DFMO alone): decreased the number of floating cells | delay of onset of apoptosis ([7]; DFMO treated cells exposed to camptothecin): up to 12 hours | floating cells (percentage of total cell count) [7, 11]: 2.2% | floating cells (percentage of total cell count) ([7]; 12 hours, DFMO treated cells): 9.3% | floating cells (percentage of total cell count) [7, 12]: 29.1% | decrease in the number of floating cells compared to control cells treated with camptothecin [7, 10]: ~3 fold | protection against apoptosis ([7]; cells grown 4 days with DFMO, DMSO (vehicle) or camptothecin, 6 hours): protected against both DMSO (vehicle) and camptothecin-induced apoptosis | percentage of floating cells ([7]; day 1 of treatment): 19.2% | percentage of floating cells ([7]; day 2 of treatment): 12.4% | percentage of floating cells ([7]; day 4 of treatment): 2.2%

Compound: CCC(=NNC(=N)N)C(CC)=NNC(=N)N [DEGBG, diethylglyoxal bis-(guanylhydrazone)]
level of putrescine in the cells [5]: significantly increased | level of spermidine in the cells [5]: decreasing | level of spermine in the cells [5]: decreasing | percentage of floating cells ([7]; day 1 of treatment): 26.6% | percentage of floating cells ([7]; day 2 of treatment): 26.9% | percentage of floating cells ([7]; day 4 of treatment): 23.3%

Compound: CC[C@@]1(O)C(=O)OCc2c1cc1n(c2=O)Cc2cc3ccccc3nc2-1 [camptothecin]
caspase 3 activity, detached cells ([1]; camptothecin 20 μM, detached (floating) cells): increased caspase 3 activity | increase in caspase 3 activity, attached cells ([1]; camptothecin 20 μM, harvested after 16 hours, attached cells): 7 fold | caspase 3 activity over time, attached cells [1]: increased progressively with time | DNA fragmentation, attached cells ([8]; attached cells): did not show remarkable DNA fragmentation | DNA fragmentation, detached cells ([8]; detached (floating) cells): showed characteristic nucleosomal DNA fragments | number of floating cells ([6]; no DFMO, camptothecin 20 μM, 6 hours): 2.7 +/− .06 | increase in the number of floating cells compared to DMSO control group ([7]; camptothecin 20 μM, within 6 hours): 8 fold | floating cells (percentage of total cell count) [7, 11]: 6.2% | floating cells (percentage of total cell count) [7, 12]: 49.3% | onset of camptothecin induced apoptosis (number of floating cells) ([7]; control cells (no DFMO)): ≤ 3 h

effect on caspase activity [9]: did not reveal any effect
Compound: NCCCCN [putrescine]
number of floating cells compared to control ([7]; exogenous 10 μM putrescine along with DFMO): restored the number of floating cells to control levels
